Measured values: US12421211B2, “Heterocyclic compounds” (Hoffmann-La Roche Inc., priority 2021, dated 2025)
Where a name gives a salt, the structure may show the parent alone.

System: Acinetobacter baumannii ATCC17961
Experiment: Antimicrobial susceptibility testing: 90% growth inhibitory concentration (IC90) determination
Assay type: cell-based
Conditions: Acinetobacter baumannii, ATCC17961, 16 h, 90% growth inhibitory concentration, Acinetobacter baumannii ATCC17961, Iso-Sensitest broth, OD 600 nm over 16 h; read-out: ATCC 17961 IC90
Method in brief: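 Growth inhibition derived in log phase from OD600 kinetics (every 20 minutes, 16h, 35±2° C) of ATCC17961 in Iso-Sensitest medium, inoculum ~5×10^5 CFU/ml. Compounds tested as twofold series, 10 points (e.g. 50 to 0.097 μM final); IC90 and IC50 reported.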

IC90 [nM] | Structure (SMILES)
61 | COCCn1ncc(-c2ccc(-c3cnc(C(=O)Nc4ccc(C(=O)N5CCN(C(=O)C6CCNCC6)CC5)c(Cl)c4)n3C)c(F)c2F)c1C [Example E11, N-[3-chloro-4-[4-(piperidine-4-carbonyl)piperazine-1-carbonyl]phenyl]-5-[2,3-difluoro-4-[1-(2-methoxyethyl)-5-methyl-pyrazol-4-yl]phenyl]-1-methyl-imidazole-2-carboxamide; 2,2,2-trifluoroacetic acid]
150 | Cn1c(-c2ccc(-c3c[nH]nc3C(F)(F)F)c(F)c2)cnc1C(=O)Nc1ccc(C(=O)N2CCN(C(=O)C3CCN(CC(N)=O)CC3)CC2)c(Cl)c1 [Example E12, N-[4-[4-[1-(2-amino-2-oxo-ethyl)piperidine-4-carbonyl]piperazine-1-carbonyl]-3-chloro-phenyl]-5-[3-fluoro-4-[3-(trifluoromethyl)-1H-pyrazol-4-yl]phenyl]-1-methyl-imidazole-2-carboxamide; 2,2,2-trifluoroacetic acid]
380 | COCCn1ncc(-c2ccc(-c3cnc(C(=O)Nc4ccc(C(=O)N5CCN(C(=O)C6CCNCC6)CC5)c(Cl)c4)n3C)c(F)c2F)c1COC [Example E13, N-[3-chloro-4-[4-(piperidine-4-carbonyl)piperazine-1-carbonyl]phenyl]-5-[2,3-difluoro-4-[1-(2-methoxyethyl)-5-(methoxymethyl)pyrazol-4-yl]phenyl]-1-methyl-imidazole-2-carboxamide; formic acid]
270 | COCCn1ncc(-c2ccc(-c3cnc(C(=O)Nc4ccc(C(=O)N5CCN(C(=O)CN(C)C)CC5)c(C)c4)n3C)cc2)c1C [Example E14, N-[4-[4-[2-(dimethylamino)acetyl]piperazine-1-carbonyl]-3-methyl-phenyl]-5-[4-[1-(2-methoxyethyl)-5-methyl-pyrazol-4-yl]phenyl]-1-methyl-imidazole-2-carboxamide]
180 | Cc1n[nH]cc1-c1ccc(-c2cnc(C(=O)Nc3ccc(C(=O)N4CCN(C(=O)CN(C)C)CC4)c(Cl)c3)n2C)cc1 [Example E15, N-[3-chloro-4-[4-[2-(dimethylamino)acetyl]piperazine-1-carbonyl]phenyl]-1-methyl-5-[4-(3-methyl-1H-pyrazol-4-yl)phenyl]imidazole-2-carboxamide; formic acid]
230 | Cc1n[nH]c(C)c1-c1ccc(-c2cnc(C(=O)Nc3ccc(C(=O)N4CCN(C(=O)CN(C)C)CC4)c(Cl)c3)n2C)cc1 [Example E16, N-[3-chloro-4-[4-[2-(dimethylamino)acetyl]piperazine-1-carbonyl]phenyl]-5-[4-(3,5-dimethyl-1H-pyrazol-4-yl)phenyl]-1-methyl-imidazole-2-carboxamide]
710 | COc1ccc(-c2[nH]ncc2-c2ccc(-c3cnc(C(=O)Nc4ccc(C(=O)N5CCN(C(=O)C6CCNCC6)CC5)c(Cl)c4)n3C)c(F)n2)cc1 [Example E17, N-[3-chloro-4-[4-(piperidine-4-carbonyl)piperazine-1-carbonyl]phenyl]-5-[2-fluoro-6-[5-(4-methoxyphenyl)-1H-pyrazol-4-yl]-3-pyridyl]-1-methyl-imidazole-2-carboxamide; formic acid]
820 | Cn1c(-c2ccc(-c3cn[nH]c3)nc2F)cnc1C(=O)Nc1ccc(C(=O)N2CCN(C(=O)C3CCNCC3)CC2)c(Cl)c1 [Example E18, N-[3-chloro-4-[4-(piperidine-4-carbonyl)piperazine-1-carbonyl]phenyl]-5-[2-fluoro-6-(1H-pyrazol-4-yl)-3-pyridyl]-1-methyl-imidazole-2-carboxamide]
130 | Cc1n[nH]cc1-c1ccc(-c2cnc(C(=O)Nc3ccc(C(=O)N4CCN(C(=O)C5CCNCC5)CC4)c(Cl)c3)n2C)c(F)c1F [Example E19, N-[3-chloro-4-[4-(piperidine-4-carbonyl)piperazine-1-carbonyl]phenyl]-5-[2,3-difluoro-4-(3-methyl-1H-pyrazol-4-yl)phenyl]-1-methyl-imidazole-2-carboxamide]
530 | Cn1cc(-c2ccc(-c3cnc(C(=O)Nc4ccc(C(=O)N5CCN(C(=O)C6CCNCC6)CC5)c(Cl)c4)n3C)c(F)c2F)cn1 [Example E20, N-[3-chloro-4-[4-(piperidine-4-carbonyl)piperazine-1-carbonyl]phenyl]-5-[2,3-difluoro-4-(1-methyl-pyrazol-4-yl)phenyl]-1-methyl-imidazole-2-carboxamide]
290 | COCCn1cc(-c2ccc(-c3cnc(C(=O)Nc4ccc(C(=O)N5CCN(C(=O)C6CCNCC6)CC5)c(Cl)c4)n3C)c(F)c2F)cn1 [Example E21, N-[3-chloro-4-[4-(piperidine-4-carbonyl)piperazine-1-carbonyl]phenyl]-5-[2,3-difluoro-4-[1-(2-methoxyethyl)pyrazol-4-yl]phenyl]-1-methyl-imidazole-2-carboxamide]
59 | COCCn1ncc(-c2ccc(-c3cnc(C(=O)Nc4ccc(C(=O)N[C@H]5[C@@H]6CN(C(=O)N[C@@H]7CNC[C@H]7O)C[C@@H]65)c(Cl)c4)n3C)c(F)c2F)c1C [Example E22, (1S,5R)-6-[[2-chloro-4-[[5-[2,3-difluoro-4-[1-(2-methoxyethyl)-5-methyl-pyrazol-4-yl]phenyl]-1-methyl-imidazole-2-carbonyl]amino]benzoyl]amino]-N-[(3R,4R)-4-hydroxypyrrolidin-3-yl]-3-azabicyclo[3.1.0] hexane-3-carboxamide]
140 | Cn1c(-c2ccc(-c3cn[nH]c3)cc2)cnc1C(=O)Nc1ccc(C(=O)N2CCN(C(=O)C3CCNCC3)CC2)c(Cl)c1 [Example E23, N-[3-chloro-4-[4-(piperidine-4-carbonyl)piperazine-1-carbonyl]phenyl]-1-methyl-5-[4-(1H-pyrazol-4-yl)phenyl] imidazole-2-carboxamide]
330 | Cn1c(-c2ccc(-c3cn(CCC(N)=O)nc3C(F)(F)F)c(F)c2F)cnc1C(=O)Nc1ccc(C(=O)N2CCN(C(=O)C3CC[N+](C)(C)CC3)CC2)c(Cl)c1 [Example F1, 5-[4-[1-(3-amino-3-oxo-propyl)-3-(trifluoromethyl)pyrazol-4-yl]-2,3-difluoro-phenyl]-N-[3-chloro-4-[4-(1,1-dimethylpiperidin-1-ium-4-carbonyl)piperazine-1-carbonyl]phenyl]-1-methyl-imidazole-2-carboxamide; formate]
65 | COCCn1ncc(-c2ccc(-c3cnc(C(=O)Nc4ccc(C(=O)N5CCN(C(=O)C6CC[N+](C)(C)CC6)CC5)c(Cl)c4)n3C)c(Cl)c2F)c1C [Example F2, N-[3-chloro-4-[4-(1,1-dimethylpiperidin-1-ium-4-carbonyl)piperazine-1-carbonyl]phenyl]-5-[2-chloro-3-fluoro-4-[1-(2-methoxyethyl)-5-methyl-pyrazol-4-yl]phenyl]-1-methyl-imidazole-2-carboxamide; formate]
120 | COCCn1ncc(-c2ccc(-c3cnc(C(=O)Nc4ccc(C(=O)N5CCN(C(=O)C6CC[N+](C)(C)CC6)CC5)c(Cl)c4)n3C)c(C)c2F)c1C [Example F3, N-[3-chloro-4-[4-(1,1-dimethylpiperidin-1-ium-4-carbonyl)piperazine-1-carbonyl]phenyl]-5-[3-fluoro-4-[1-(2-methoxyethyl)-5-methyl-pyrazol-4-yl]-2-methyl-phenyl]-1-methyl-imidazole-2-carboxamide; formate]
